# Measured values published in patent US4442103A, “Treating sedation with 1-(3-substituted-2-pyridinyl) piperazines” (Merck & Co., Inc., priority 1982, dated 1984).
# Columns and labels:
# α2-adrenergic receptor = assay type: binding, calf; details: for α1/α2 (ratio of Ki): Ki α1 / Ki α2, calf cerebral cortex; for Ki: [3H] clonidine binding site, calf cerebral cortex
# α1-adrenergic receptor = α1-adrenergic receptor binding ([3H] prazosin binding site); details: calf cerebral cortex
# Experimental: Extent of binding to the α1 -adrenergic receptor was determined by the method of Greengrass and Bremner, Eur. J. Pharmacol., 55, 323 (1979) and is expressed in Table II as Ki, representing the affinity of each compound for the [^3 H] prazosin binding site in calf cerebral cortex.
# [1] = system: α1- or α2-adrenergic receptors; details: cited from earlier work
# norepinephrine reuptake = details: cited from earlier work
# [2] = system: sedation produced by clonidine; details: in vivo; cited from earlier work
# [3] = system: locomotor depressant effects of methyldopa; details: rats; cited from earlier work
# [4] = system: clonidine-induced sedation; details: man; cited from earlier work
structure (smiles),measurement,setting,value
"Cl.Cl.Ic1cccnc1N1CCNCC1 [Compound 1, 1-(3-Iodo-2-pyridinyl)piperazine Dihydrochloride]",α1/α2 (ratio of Ki),α2-adrenergic receptor,38
same,Ki,α2-adrenergic receptor,42 nM
same,Ki,α1-adrenergic receptor,1600 nM
CN1CCN(c2ncccc2Br)CC1 [Compound 2],α1/α2 (ratio of Ki),α2-adrenergic receptor,55
same,Ki,α2-adrenergic receptor,2.9 nM
same,Ki,α1-adrenergic receptor,160 nM
FC(F)(F)c1cccnc1N1CCNCC1 [Compound 3],α1/α2 (ratio of Ki),α2-adrenergic receptor,29
same,Ki,α2-adrenergic receptor,97 nM
same,Ki,α1-adrenergic receptor,2850 nM
c1ccc(N2CCNCC2)nc1 [Compound 4],α1/α2 (ratio of Ki),α2-adrenergic receptor,65
same,Ki,α2-adrenergic receptor,37 nM
same,Ki,α1-adrenergic receptor,2400 nM
"O=[N+]([O-])c1cccnc1N1CCNCC1 [Compound 5, 1-(3-Nitro-2-pyridinyl)piperazine]",α1/α2 (ratio of Ki),α2-adrenergic receptor,146
same,Ki,α2-adrenergic receptor,26 nM
same,Ki,α1-adrenergic receptor,3800 nM
CN1CCN(c2ncccc2F)CC1 [Compound 6],α1/α2 (ratio of Ki),α2-adrenergic receptor,98
same,Ki,α2-adrenergic receptor,5 nM
same,Ki,α1-adrenergic receptor,490 nM
CN1CCN(c2ncccc2Cl)CC1 [Compound 7],Ki,α2-adrenergic receptor,2.7 nM
same,Ki,α1-adrenergic receptor,215 nM
CN1CCN2c3ccccc3Cc3ccccc3C2C1 (centres unmarked) [Mianserin],blockade of α2-adrenergic receptors,[1],blocks α2 -adrenergic receptors
same,selectivity for α1- or α2-adrenergic receptors,[1]; in vivo blockade suggested at about the same dose,fails to exhibit any important selectivity
same,in vivo norepinephrine reuptake inhibiting properties,norepinephrine reuptake,minimal
COC(=O)[C@@H]1[C@H]2C[C@H]3c4[nH]c5ccccc5c4CCN3C[C@@H]2CC[C@@H]1O [yohimbine],effect on sedation produced by clonidine,[2],antagonizes the sedation produced by clonidine
same,effect on locomotor depressant effects of methyldopa,[3],antagonizes
same,effect on clonidine-induced sedation,[4],reduce clonidine-induced sedation in man
